Data reported in US20240326697A1, “SOLID FORMS OF SELECTIVE ANDROGEN RECEPTOR MODULATORS” (priority 2007, published 2024).
Values joined by “and” are separate entries in the source; they are usually repeats but may differ in a detail not shown here. Identical values can stand only once. Marks after values point to notes of the source that are not given here.

Legend:
Type in all cases: physicochemical
[1] = Measurement of the approximate solubility (solvent added in steps to the solid); details: ethyl acetate/n-heptane 1:2 v/v, 23° C. (B′: solid form transformation into solid form A)
Description: To determine the approximate solubility at room temperature, the solvent was added in steps to the solid material. After every addition, the sample was well stirred. The addition of solvent was continued until complete dissolution or until 15 ml of solvent was added.

[2] = Water solubility of solid forms A and B′ (suspension shaken, filtered, HPLC; residue by Raman); details: 22° C.; for Solid residue: Raman, rough estimate; for solubility: mean of two measurements (±standard deviation)
Description: During the following experiments: suspension equilibration, precipitation experiment, recrystallization, relative stability experiments and water solubility experiment, a filtration step was conducted. Centrifugal filter devices: Ultrafree-CL (0.22 la,m), Millipore; Centrifuge type or Eppendorf 5804R were used at a temperature of 22° C. and centrifugation program of 2 min 3000 rpm.
HPLC was used to analyse the purity of S-1. HP 1090M HPLC machine was used with the following conditions: • Column: Symmetry Shield RP18, 3.9×150 mm, 5 μm • Column temperature: 35° C. • Injection volume: 10 μL • Solvent: acetonitrile+water 1:1 v/v • Mobile phase A: 0.1% TFA-water • Mobile phase B: 0.1% TFA-acetonitrile • Flow rate: 1 mL/min. • Detection: UV at 271 nm • Run time: 21 min. • Retention time (S-1): 10.7 min.
Suspensions of the solid forms (25 or 50 mg in 3.5 or 7.0 ml bidistilled water) were shaken (800 rpm) and filtered after 0.5 h, 1.5 h, 4 h and 20 h. After filtration the solid residue was checked by Raman spectroscopy and the concentration in the clear solution was determined by HPLC.

[3] = Suspension equilibration experiments
Description: Suspension equilibration experiments were carried out with 81-128 mg of the compound. The suspensions were stirred with a magnetic stirrer. The samples obtained after filtration were air dried at ambient temperature for a short time only to prevent possible desolvation of labile hydrates or solvates.

[4] = Dynamic vapor sorption (DVS); details: 25° C.
Description: Dynamic vapor sorption quantification relates the mass of water absorbed and subsequently desorbed during the crystallization process. In order to define whether batch P1, P2 and P4 are hydrated polymorphs, DVS measurements were conducted (FIG. 9). A sample (13 to 14 mg) was placed on a Pt pan, and the sample was allowed to equilibrate at 25° C./50% r.h. before starting a pre-defined humidity program (1.0 hours 50%, from 50% r.h. to 95% r.h.: 5% r.h./hour, 10 hours at 95% r.h., from 95% r.h. to 0% r.h.: 5% r.h./hour, 10 hours at 0% r.h., from 0% r.h. to 50% r.h.: 5% r.h./hour, 1 hours at 50% r.h.

[5] = Relative stability of polymorphic forms under dry conditions (heating, micronization); details: heating to 110° C. in the presence of D
Description: (§1) Thermal analysis was carried out with a Perkin Elmer DSC7 with the following experimental conditions: 3 to 6 mg sample mass, closed gold sample pan, temperature range −50° C. to 120° C., heating rate 20 K/min. The samples were weighed in air or dry N2 atmosphere. Additional thermal analysis was conducted using a TA Instruments Q1000 DSC using hermetic aluminum pans under various conditions.
Thus forms A and B″ can be considered to be practically stable at ambient temperature. […] Micronization of the polymorph A particles under dry conditions also produced ˜25% conversion to B″.

[6] = Relative stability of toluene solvate in toluene / solubility in toluene
Description: Recrystallization of S-1 from a solvent/antisolvent system that uses toluene as the antisolvent produces the toluene solvate. Toluene solvate has a melting point near 100° C. with the enthalpy of melting 70±5 J/g.

[7] = Relative stability of polymorphic forms under humid conditions (storage, DSC); details: 50° C./75% RH as well as ambient/75% RH, ambient/100% RH, 30° C./75% RH and 50° C./0% RH
Description: as §1
Polymorph A stays stable in its A form for at least 7 days under storage conditions of ambient temperature/75% RH (Relative Humidity), ambient temperature/100% RH, 30° C./75% RH and 50° C./0% RH.
In fact, polymorph D in the presence of moisture acts as the seed for the crystallization process and drives the transformation of polymorphs A and B′ into D, similar to its role in seeding the A to D crystallization in dry conditions. […] The amount of polymorph D initially added to the sample is very small that it isn't detectable by the DSC with heating rate of 10° C./min. […] The transformation process is speeded up in FIG. 17G (b) by storing the sample in water at 50° C. […] Further work has shown that the A and B′ convert to D in the presence of moisture at lower temperatures also albeit at slower rates.

C[C@](O)(COc1ccc(C#N)cc1)C(=O)Nc1ccc(C#N)c(C(F)(F)F)c1 [Form B′, (S)-N-(4-cyano-3-(trifluoromethyl)phenyl)-3-(4-cyanophenoxy)-2-hydroxy-2-methylpropanamide]
solubility [1]: >9 solid form mg/ml
solubility in water ([2]; stated as embodiment): 20 to 30 µg/mL and 23 to 27 µg/mL
Solid residue ([2]; water, 0.5 h): B′
Solid residue ([2]; water, 1.5 h): B′
Solid residue ([2]; water, 4.0 h): B′
Solid residue ([2]; water, 20 h): B′
pH of the solution ([2]; water, 20 h suspension equilibration): d) pH of the solution: 8.7
solubility ([2]; water, suspension equilibration time 0.5 h): 27.4 ± 0.9 mg/1000 ml
solubility ([2]; water, suspension equilibration time 1.5 h): 27.3 ± 0.8 mg/1000 ml
solubility ([2]; water, suspension equilibration time 1.5 h, listed as B′): 27.3±0.8 mg/1000 ml
solubility ([2]; water, suspension equilibration time 4.0 h): 25.6 ± 0.1 mg/1000 ml
solubility ([2]; water, suspension equilibration time 20 h): 26.7 ± 0.3 ^c) mg/1000 ml
Form produced ([3]; ethyl acetate + n-heptane 1:2 v/v 81/1.7 mg/ml, stirred 2 h/23° C.): transformed into solid form A
Form produced ([3]; ethyl acetate + n-pentane 1:2 v/v 101/1.0 mg/ml, stirred 22 h/23° C.): transformed into solid form A
maximum water content at 94% r.h. ([4]; listed as solid form B′): approx. 2.4%

C[C@](O)(COc1ccc(C#N)cc1)C(=O)Nc1ccc(C#N)c(C(F)(F)F)c1 [Form B″, (S)-N-(4-cyano-3-(trifluoromethyl)phenyl)-3-(4-cyanophenoxy)-2-hydroxy-2-methylpropanamide]
solid form change on heating [5]: rearrange into D

C[C@](O)(COc1ccc(C#N)cc1)C(=O)Nc1ccc(C#N)c(C(F)(F)F)c1 [Form S-1, (S)-N-(4-cyano-3-(trifluoromethyl)phenyl)-3-(4-cyanophenoxy)-2-hydroxy-2-methylpropanamide]
solubility ([6]; toluene, organic solvent or mixture): < 2000 µg/mL

C[C@](O)(COc1ccc(C#N)cc1)C(=O)Nc1ccc(C#N)c(C(F)(F)F)c1 [Form S-1-P1, (S)-N-(4-cyano-3-(trifluoromethyl)phenyl)-3-(4-cyanophenoxy)-2-hydroxy-2-methylpropanamide]
maximum water content at 93% r.h. [4]: 1.5%
water content at 50% r.h. [4]: water content at 50% r.h.: 0.4%

C[C@](O)(COc1ccc(C#N)cc1)C(=O)Nc1ccc(C#N)c(C(F)(F)F)c1 [Form D, (S)-N-(4-cyano-3-(trifluoromethyl)phenyl)-3-(4-cyanophenoxy)-2-hydroxy-2-methylpropanamide]
solid form stability on storage [7]: stable
solid form stability on storage ([7]; listed as Polymorph D): remains stable
transformation in toluene suspension ([6]; sonication of the suspension for 10 minutes): partial transformation to the toluene solvate
transformation in toluene suspension ([6]; suspension (50 mg/mL) in toluene for 4 days, both at ambient temperature and 50° C.): no noticeable transformation from form D to the toluene solvate

C[C@](O)(COc1ccc(C#N)cc1)C(=O)Nc1ccc(C#N)c(C(F)(F)F)c1 [Form S-1-P4, (S)-N-(4-cyano-3-(trifluoromethyl)phenyl)-3-(4-cyanophenoxy)-2-hydroxy-2-methylpropanamide]
maximum water content at 94% r.h. [4]: r.h.: ~2.4%
water content at 50% r.h. [4]: water content at 50% r.h.: ~0.8%

C[C@](O)(COc1ccc(C#N)cc1)C(=O)Nc1ccc(C#N)c(C(F)(F)F)c1 [Form S-1-P2, (S)-N-(4-cyano-3-(trifluoromethyl)phenyl)-3-(4-cyanophenoxy)-2-hydroxy-2-methylpropanamide]
maximum water content at 95% r.h. [4]: 0.6%
water content at 50% r.h. [4]: water content at 50% r.h.: 0.3%
